Laboratory results from patent publication US8193238B2, “Inhibition of microtubule protrusion in cancer cells” (University of Maryland, Baltimore, priority 2006, dated 2012).
“Also recorded” adds a separate entry of the source.

Key:
[1] = tested on: detached mammary epithelial cells; assay: Protrusions of detached mammary epithelial cells, general statements; format: cell-based, human and mouse
Experimental: Time-lapse video microscopy of detached mammary epithelial cells detected the extension of long, dynamic protrusions of the plasma membrane, and the present inventors have characterized the cytoskeletal mechanism underlying this novel observation. […] This response may be relatively short-lived, in specific embodiments, since mammary epithelial cells die by apoptosis within about 24 hours in suspension. However, cell lines that resist apoptosis through expression of either Bcl-2 or Bcl-xL will persistently form protrusions. Previous studies by the inventors indicate that such apoptotically-resistant cell lines will not form tumors in mice and lie dormant in distant tissues, in specific embodiments of the invention. […] These microtubule processes can extend more than 3 times the cell diameter, and undergo a rapid probing motion more than once per second. Formation of these microtubule protrusions is necessary for efficient cell-cell and cell-substratum attachment. In particular embodiments of the invention, this inherent microtubule response in detached mammary epithelial cells provides at least some of the invasive characteristics of breast cancer, independent of any tumor-specific genetic alteration, for example.
Breast tumor cells enter the bloodstream long before the development of clinically evident metastasis. However, the early presence of such bloodborne cells predicts poor patient outcome. Nearly 90% of human breast tumors arise as carcinomas from mammary epithelial cells, so it is important to characterize how these cells respond to the detached conditions that they would experience in the bloodstream. In the present invention, mammary epithelial cell lines produce long and dynamic protrusions of the plasma membrane when detached. Although human and mouse mammary epithelial cell lines die by apoptosis within 16 hours of detachment, this protrusive response persists for days in cells overexpressing either Bcl-2 or Bcl-xL, for example. […] Since bloodborne metastasis depends on both cell-cell and cell-matrix attachment, microtubule-based protrusions in detached mammary epithelial cells provide a novel target that could influence the metastatic spread of breast tumors.
Detachment-induced increases in Glu-tubulin could promote plasma membrane protrusions of microtubules by preventing efficient capture at the actin cortex. […] Therefore, our current model is that detachment increases stabilized microtubules enriched in Glu-tubulin, while decreased actin polymerization simply promotes extension of these microtubule protrusions.

[2] = tested on: EpH4 cells; assay: Protrusions in suspended cells treated with cytoskeletal inhibitors (EpH4); format: cell-based, mouse; conditions: EpH4, 15 minutes of suspension; Latrunculin-A 5 μM, Colchicine 1 μM
Experimental: (§1) In FIG. 2A, after 15 minutes of suspension, protrusions in EpH4 and MCF10A cells are quite small (Control, white arrows). […] In FIG. 2B, populations of live, suspended cells were scored blindly for two or more protrusions longer than the cell radius. Each bar represents the mean+S.D. for three experiments in which at least 100 single cells were counted.
EpH4 cells were suspended in either DMEM (Control) or media containing 5 μM Latrunculin-A (LA), 1 μM Colchicine or the combination of both drugs for 30 minutes. Cells were then spun onto glass coverslips and fluorescently stained for α-tubulin (green) and polymerized actin (red). Protrusions that are difficult to see by phase contrast are easily discernible with immunostaining for α-tubulin (white arrows). Protrusions contain little polymerized actin, except at points of concentration, which are often at the end (arrowhead).
EpH4 and B19 cells were suspended over 2% agarose coated plates to prevent attachment in either serum-free DMEM or media containing. Latrunculin-A (5 μM) to enhance protrusions. For co-staining of α-tubulin and actin, suspended cells were then centrifuged onto poly-L-lysine coated coverslips (280 g×5 min), fixed in 3.7% formaldehyde in PBS for 10 min, and permeablized with 0.1% Triton X-100 in PBS. Adhered cells were then stained for 1 hr at room temperature using FITC-conjugated anti-α-tubulin (1:200; Sigma), Alexa-594 phalloidin (1:100; Molecular Probes), and Hoescht 33342 (1:5000; Sigma).
(§2) In order to initially characterize the cytoskeletal mechanism underlying these protrusions, suspended cells were treated with inhibitors of actin and tubulin polymerization (FIG. 2). After 15 minutes of suspension, the protrusions in untreated EpH4 or MCF10A cells remain fairly short (FIG. 2, white arrows). These early protrusions can often be difficult to detect with phase-contrast microscopy, due to interfering light refraction from the plasma membrane. […] Protrusions were more easily visible with immunofluorescence than phase contrast microscopy (FIG. 3, white arrows). Although actin filament staining was generally low along the length of the protrusion, dense points of actin were often found at the end of protrusions (FIG. 3, arrowheads).

[3] = tested on: MCF10A cells; assay: Protrusions in suspended cells treated with cytoskeletal inhibitors (MCF10A); format: cell-based, human; conditions: MCF10A, 15 minutes of suspension; Latrunculin-A 5 μM, Colchicine 1 μM
Experimental: as §1, §2
The nontumorigenic human mammary epithelial cell line (MCF10A) or the indicated human breast tumor cell lines were grown in suspension for 30-60 minutes, and protrusions were counted in random fields with phase-contrast microscopy. Values represent the mean±S.D. of three experiments in which at least 100 cells were counted. […] This effect was most apparent in the highly metastatic but exemplary Bt-474 and MDA-MB-231 cells (pictured, black arrows). The exemplary MCF10A cells show far fewer and shorter protrusions at the same time point (pictured, white arrows). Such protrusions are not observed in attached cells.

[4] = tested on: chicken erythrocytes from day 2 embryos; conditions: cited from earlier work
[5] = tested on: MCF10A cells; assay: Chemical inhibition of Latrunculin-A-enhanced microtubule protrusions in suspended cells; format: cell-based, human
Experimental: MCF10A cells were placed into suspension in the presence of the indicated chemical inhibitors targeted at specific signaling pathways or the corresponding vehicle controls. Cells were then treated with the actin polymerization inhibitor, Latrunculin-A (LA, 5 μM) for one hour to enhance protrusions. […] Thus, protrusions can be reduced by chemical inhibition of specific signaling proteins.

[6] = tested on: cells; format: cell-based; conditions: indicated concentrations, 2 hours
[7] = tested on: Bt-474; assay: GFP-membrane protrusion counts after local anesthetics (Bt-474); format: cell-based, human; conditions: Bt-474, GFP-membrane; Lidocaine 50 mM, Tetracaine 2.5 mM; with or without LA
Experimental: (§3) Cells were then suspended in DMEM culture media with or without […] Latrunculin-A (LA) to induce protrusions by depolymerizing actin. […] Bars represent mean+S.D. of at least three blindly counted experiments.

[8] = tested on: MDA-231; assay: GFP-membrane protrusion counts after local anesthetics (MDA-231); format: cell-based, human; conditions: MDA-231, GFP-membrane; Lidocaine 50 mM, Tetracaine 2.5 mM; with or without LA
Experimental: as §3

[9] = tested on: MCF10A cells; conditions: MCF10A treated two hours
[10] = tested on: metastasis; conditions: known, via unclear mechanism; cited from earlier work

## C=C1[C@@H](C)[C@H]2[C@H](Cc3ccccc3)NC(=O)[C@]23[C@H](OC(C)=O)/C=C/[C@@](C)(O)C(=O)[C@@H](C)C/C=C/[C@H]3[C@@H]1O [Cytochalasin-D]
[1]
  protrusions: enhanced; also recorded: promotes the extension of microtubule protrusions
[2]
  protrusions: increased protrusions
[3]
  protrusions: increased protrusions
[4]
  microtubule processes: promotes microtubule processes

## Cn1sc(=O)n(Cc2ccccc2)c1=O [TDZD-8]
[5]; MCF10A in suspension, then LA 5 μM one hour, sodium orthovanadate 1 mM, S-Trityl-L-Cysteine 100 μM, TDZD-8 20 μM
  protrusions: strongest inhibition of protrusions
[5]; one hour of treatment
  protrusion frequency: reduce protrusion frequency significantly
[6]
  cell viability: did not reduce cell viability significantly

## CCCCNc1ccc(C(=O)OCCN(C)C)cc1 [Tetracaine]
[7]
  protrusions: inhibited significantly
[8]
  protrusions: inhibited significantly
[9]
  concentration showing significant cell toxicity: ≥ 3000 µM
[9]; Lidocaine up to 50 mM
  cell toxicity: cytotoxic
[10]
  metastasis: reduce metastasis
